Measured values: patent publication US20260184669A1, “LIPID COMPOUND AND COMPOSITION FOR DELIVERY OF ACTIVE SUBSTANCE” (KOREA RESEARCH INSTIUTE OF BIOSCIENCE AND BIOTECHNOLOGY, priority 2022, published 2026)

Assays:
[1] = test system: CCL2 mRNA level in HEK-293T cells; settings: human
[2] = Size, polydispersity index and surface charge of mRNA-LNP (Malvern Zetasizer Nano ZS90); type: physicochemical; settings: for PDI / size (nm) Number: mRNA-LNP made with the ionizable lipid at its optimal formulation (Table 2); for size (nm) Number: diluted with PBS to 1 μg/mL mRNA; for Zeta (mV): surface charge of mRNA-LNP made with the ionizable lipid at its optimal formulation (Table 2)
Description: Each mRNA-LNPs produced in Example 27 was diluted with PBS to a final mRNA concentration of 1 μg/mL. The size, polydispersity index (PDI), and surface charge of the mRNA-LNPs were then measured using a Malvern Zetasizer Nano ZS90 (Malvern Instruments, UK).
For particles intended for systemic administration, such as via blood vessels, the particle size must be less than 200 nm in order to pass through the endothelial capillaries of the liver. In addition, the size distribution is considered uniform only when the PDI is 0.3 or less, which enables consistent and efficient therapeutic effects (Non-patent document 3 [Danaei, M. et al). Pharmaceutics 2018, 10, 57]).

[3] = test system: IL-1β mRNA level in HEK-293T cells; settings: human
[4] = test system: IL-6 mRNA level in HEK-293T cells; settings: human
[5] = test system: female C57BL/6 mice; experiment: Protein expression efficiency of fLuc mRNA-LNPs after intramuscular injection (IVIS whole-body luminescence); type: in vivo; settings: for Total flux 1 hour / Total flux 3 hours / Total flux 6 hours / Total flux 48 hours / Total flux 72 hours / Total flux: fLuc mRNA-LNP, intramuscular injection, luminescence at injection site, mice; for Total flux 1 hour: 1 hour after administration; for Total flux 3 hours: 3 hours after administration; for Total flux 6 hours: 6 hours after administration; for Total flux 48 hours: 48 hours after administration; for Total flux 72 hours: 72 hours after administration; for Total flux: after administration; for Fold increase in total flux at 3 h, MC3: relative to control LNP formulated with MC3; for Fold increase in total flux at 3 h, MC3 / Fold increase in total flux at 3 h, SM-102: 3 hours after intramuscular injection; for Fold increase in total flux at 3 h, SM-102: relative to control LNP formulated with SM-102
Description: fLuc mRNA-LNPs formulated using various ionizable lipids were prepared according to the method described in Example 27 and administered in vivo via intramuscular (I. M.) or intravenous (IV.) injection to compare the resulting protein expression efficiency in vivo. As a control, EGFP mRNA-LNPs formulated with commercially available ionizable lipids MC3 or SM-102 were used. All mRNA-LNPs were administered at equal mRNA doses per body weight across different concentration groups (n≥4).
Specifically, the dose of mRNA-LNPs was adjusted to 0.1-0.5 mg/kg of body weight, and the formulation was administered via I.M. or I.V. injection to female C57BL/6 mice (6-10 weeks old, Orient Bio, Korea) Subsequently, […], whole-body luminescence images were acquired using an in vivo imaging system (IVIS Lumina III, PerkinElmer, Walzam, MA, USA). To assess protein expression levels, 200 μL of D-luciferin (15 mg/mL) was administered via intraperitoneal (I.P.) injection 10 minutes prior to imaging. During image acquisition, the animals were anesthetized by inhalation of 3% isoflurane in 97% medical grade oxygen. In addition, the acquired luminescence images were quantitatively analyzed using imaging software (Living Image Software Version 4.4; PerkinElmer, USA).
After intramuscular injection of the fLuc mRNA-LNPs, the luminescence intensity at the injection site was measured over time.
Furthermore, the luminescence intensity at the injection site 3 hours after intramuscular injection was measured, and the relative protein expression efficiency was compared to that of control LNPs formulated with MC3 or SM-102.

[6] = Stability of mRNA-LNPs according to storage temperature and duration; type: physicochemical; settings: for Normalized EE % D-1 / Size (nm) D-1 / PDI D-1: day 1; for Normalized EE % D-7 / PDI D-7 / Size (nm) D-7: day 7; for Normalized EE % D-30 / PDI D-30 / Size (nm) D-30: day 30
Description: Stability of fLuc mRNA-LNPs produced using various ionizable lipids according to the method of Example 27, was assessed by storing the LNPs at 4° C. and 25° C. At 1, 7, and 30 days post-manufacture, the size, PDI, and encapsulation efficiency (EE) of each mRNA-LNPs samples were measured using the methods described in Experimental Examples 2 and 3.

[7] = test system: CCL3 mRNA level in HEK-293T cells; settings: human
[8] = mRNA encapsulation efficiency (Quant-IT RiboGreen RNA assay); type: physicochemical; settings: mRNA encapsulation efficiency of mRNA-LNP made with the ionizable lipid; average of two measurements
Description: The mRNA encapsulation efficiency (EE, %) of LNPs containing mRNA was measured using the Quant-IT™ RiboGreen® RNA assay kit (Invitrogen, USA).
The diluted samples were added to each well of a 96-well plate. Group A (without Triton X-100) was supplemented with 50 μL of 1×TE buffer, while Group B (with Triton X-100) was supplemented with 50 μL of 1×TE buffer containing 2% Triton-X 100. To release the encapsulated mRNA, the LNPs were treated with Triton-X 100 and incubated at 37° C. for 10 minutes. Subsequently, 100 μL of ribogreen reagent was added to each well. The fluorescence intensities of Group A and Group B were measured using a multi-plate reader (λex 480 nm, λem 520 nm), and mRNA encapsulation efficiency (%) was calculated using Equation 1 below. The encapsulation efficiency for each LNP was determined as the average of two independent measurements.

Row | Structure (SMILES) | CCL2 Average [1] | PDI [2] | size (nm) Number [2] | Zeta (mV) [2] | IL-1β Average [3] | IL-6 Average [4] | Total flux 1 hour [5] | Total flux 3 hours [5] | Total flux 6 hours [5] | Total flux 48 hours [5] | Total flux 72 hours [5] | Total flux [5] | Fold increase in total flux at 3 h, MC3 [5] | Fold increase in total flux at 3 h, SM-102 [5] | Normalized EE % D-1 ([6]; fLuc mRNA-LNP stored at 4° C.) | Size (nm) D-1 ([6]; fLuc mRNA-LNP stored at 4° C.) | Normalized EE % D-7 ([6]; fLuc mRNA-LNP stored at 4° C.) | PDI D-7 ([6]; fLuc mRNA-LNP stored at 4° C.) | Size (nm) D-7 ([6]; fLuc mRNA-LNP stored at 4° C.) | Normalized EE % D-30 ([6]; fLuc mRNA-LNP stored at 4° C.) | also measured
1 | CCCCCCCCCCCOC(=O)CCCCCN(CCCCCCCC(=O)OC(CCCCCCCC)CCCCCCCC)CC(O)CCCCNC(=O)c1nccn1C (stereo not drawn) [Compound 36, Heptadecan-9-yl 8-((2-hydroxy-6-(1-methyl-1H-imidazole-2-carboxamido)hexyl)(6-oxo-6-(undecyloxy)hexyl)amino)octanoate] | 1.86 | 0.073 | 112 nm | −3.19 mV | 0.96 | 1.30 | 1.62E+07 | 4.51E+07 | 3.18E+07 | 3.79E+06 | 3.09E+06 | 1.03E+07 | 3.65 | 0.40 | 87.2% | 111.9 nm | 89.1% | 0.146 | 114.4 nm | 86.6% | PDI D-30 ([6]; fLuc mRNA-LNP stored at 4° C.): 0.076; Size (nm) D-30 ([6]; fLuc mRNA-LNP stored at 4° C.): 120.9 nm; Normalized EE % D-1 ([6]; fLuc mRNA-LNP stored at 25° C.): 87.2%; PDI D-1 ([6]; fLuc mRNA-LNP stored at 25° C.): 0.073; Size (nm) D-1 ([6]; fLuc mRNA-LNP stored at 25° C.): 111.9 nm; Normalized EE % D-7 ([6]; fLuc mRNA-LNP stored at 25° C.): 89.0%; PDI D-7 ([6]; fLuc mRNA-LNP stored at 25° C.): 0.123; Size (nm) D-7 ([6]; fLuc mRNA-LNP stored at 25° C.): 110.6 nm; Normalized EE % D-30 ([6]; fLuc mRNA-LNP stored at 25° C.): 83.8%; PDI D-30 ([6]; fLuc mRNA-LNP stored at 25° C.): 0.092; Size (nm) D-30 ([6]; fLuc mRNA-LNP stored at 25° C.): 119.2 nm; CCL3 Average [7]: 2.40; EE (%) [8]: 87%
2 | CCCCCCCCCCCOC(=O)CCCCCN(CCCCCCCC(=O)OC(CCCCCCCC)CCCCCCCC)CC(O)CCCCNC(=O)c1c[nH]c(O)n1 (stereo not drawn) [Compound 35, Heptadecan-9-yl 8-((2-hydroxy-6-(2-hydroxy-1H-imidazole-4-carboxamido)hexyl)(6-oxo-6-(undecyloxy)hexyl)amino)octanoate] | 1.42 | 0.040 | 123 nm | −3.90 mV | 0.91 | 1.14 | 1.54E+07 | 4.49E+07 | 5.04E+07 | 7.96E+05 | 1.27E+06 | 6.12E+06 | 3.64 | 0.40 | 90.2% | 123.4 nm | 83.7% | 0.089 | 130.3 nm | 88.6% | PDI D-30 ([6]; fLuc mRNA-LNP stored at 4° C.): 0.127; Size (nm) D-30 ([6]; fLuc mRNA-LNP stored at 4° C.): 141.3 nm; Normalized EE % D-1 ([6]; fLuc mRNA-LNP stored at 25° C.): 90.2%; PDI D-1 ([6]; fLuc mRNA-LNP stored at 25° C.): 0.040; Size (nm) D-1 ([6]; fLuc mRNA-LNP stored at 25° C.): 123.4 nm; Normalized EE % D-7 ([6]; fLuc mRNA-LNP stored at 25° C.): 85.3%; PDI D-7 ([6]; fLuc mRNA-LNP stored at 25° C.): 0.098; Size (nm) D-7 ([6]; fLuc mRNA-LNP stored at 25° C.): 133.3 nm; Normalized EE % D-30 ([6]; fLuc mRNA-LNP stored at 25° C.): 88.3%; PDI D-30 ([6]; fLuc mRNA-LNP stored at 25° C.): 0.076; Size (nm) D-30 ([6]; fLuc mRNA-LNP stored at 25° C.): 123.8 nm; CCL3 Average [7]: 2.30; EE (%) [8]: 90%
3 | CCCCCCCCCCCOC(=O)CCCCCN(CCCCCCCC(=O)OC(CCCCCCCC)CCCCCCCC)CC(O)CCCCNC(=O)c1ccc[nH]1 (stereo not drawn) [Compound 16, Heptadecan-9-yl 8-((2-hydroxy-6-(1H-pyrrole-2-carboxamido)hexyl)(6-oxo-6-(undecyloxy)hexyl)amino)octanoate] | 0.79 | 0.101 | 132 nm | −7.87 mV | 0.74 | 0.97 | 1.11E+07 | 5.26E+07 | 3.64E+07 | 1.71E+06 | 1.40E+06 | 1.61E+07 | 4.26 | 0.47 | 90.9% | 132.2 nm | 91.5% | 0.138 | 137.1 nm | 86.9% | PDI D-30 ([6]; fLuc mRNA-LNP stored at 4° C.): 0.069; Size (nm) D-30 ([6]; fLuc mRNA-LNP stored at 4° C.): 141.5 nm; Normalized EE % D-1 ([6]; fLuc mRNA-LNP stored at 25° C.): 90.9%; PDI D-1 ([6]; fLuc mRNA-LNP stored at 25° C.): 0.101; Size (nm) D-1 ([6]; fLuc mRNA-LNP stored at 25° C.): 132.2 nm; Normalized EE % D-7 ([6]; fLuc mRNA-LNP stored at 25° C.): 89.1%; PDI D-7 ([6]; fLuc mRNA-LNP stored at 25° C.): 0.059; Size (nm) D-7 ([6]; fLuc mRNA-LNP stored at 25° C.): 137.7 nm; Normalized EE % D-30 ([6]; fLuc mRNA-LNP stored at 25° C.): 84.4%; PDI D-30 ([6]; fLuc mRNA-LNP stored at 25° C.): 0.093; Size (nm) D-30 ([6]; fLuc mRNA-LNP stored at 25° C.): 145.1 nm; CCL3 Average [7]: 2.31; EE (%) [8]: 91%
